Experimental data reported in ChEMBL document CHEMBL1201862, “PubChem BioAssay data set” (2004).
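Method: 48-hour compound exposure of cells in 96-well plates, five concentrations, linear interpolation of endpoints. GI50 marks 50% less growth.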 The source made the active and inactive calls. No stated cut-off is given here; in the data, active = GI50 up to about 1.1 µM and inactive = higher.

Experiments:
Experiment in all cases: NCI anticancer screen, dose series, 48 h
SK-OV-3 = test system: SK-OV-3
MDA-MB-435 = test system: MDA-MB-435
786-0 = test system: 786-0
OVCAR-3 = test system: OVCAR-3
HOP-62 = test system: HOP-62
OVCAR-4 = test system: OVCAR-4
ACHN = test system: ACHN
KM12 = test system: KM12
OVCAR-5 = test system: OVCAR-5
K562 = test system: K562
BT-549 = test system: BT-549
HT-29 = test system: HT-29
SNB-19 = test system: SNB-19
SK-MEL-2 = test system: SK-MEL-2
NCI-H460 = test system: NCI-H460
NCI/ADR-RES = test system: NCI/ADR-RES
SK-MEL-28 = test system: SK-MEL-28
SF-295 = test system: SF-295
MCF7 = test system: MCF7
MDA-N = test system: MDA-N

Measured: GI50

CC(C)c1ccc(NC(=S)NC(=O)c2ccccc2)cc1
inactive: SK-OV-3 42 µM | MDA-MB-435 13.8 µM | 786-0 18.4 µM | OVCAR-3 18.1 µM | HOP-62 33.8 µM | OVCAR-4 16.9 µM | ACHN 18.2 µM | KM12 18.2 µM | OVCAR-5 28.3 µM | K562 12.1 µM | BT-549 24.9 µM | HT-29 10.4 µM | SNB-19 48.4 µM | SK-MEL-2 20 µM | NCI-H460 15.5 µM | NCI/ADR-RES 31.7 µM | SK-MEL-28 20.8 µM | SF-295 14.1 µM | MCF7 18.4 µM

OCCN(CCO)c1ccc2c(-c3ccccc3)cc(N(CCO)CCO)nc2n1
inactive: SK-OV-3 > 100 µM | MDA-MB-435 > 100 µM | 786-0 > 100 µM | OVCAR-3 > 100 µM | HOP-62 > 100 µM | OVCAR-4 > 100 µM | ACHN > 100 µM | KM12 > 100 µM | OVCAR-5 > 100 µM | K562 > 100 µM | BT-549 > 100 µM | HT-29 > 100 µM | SNB-19 > 100 µM | SK-MEL-2 > 100 µM | NCI-H460 > 100 µM | NCI/ADR-RES > 100 µM | SK-MEL-28 > 100 µM | SF-295 > 100 µM | MCF7 > 100 µM

N#Cc1cc(C#N)c(Cl)nc1N
inactive: SK-OV-3 > 10 µM | MDA-MB-435 > 10 µM | 786-0 > 10 µM | OVCAR-3 > 10 µM | MDA-N > 10 µM | HOP-62 > 10 µM | OVCAR-4 > 10 µM | ACHN > 10 µM | KM12 > 10 µM | K562 7.53 µM | HT-29 > 10 µM | SNB-19 > 10 µM | SK-MEL-2 > 10 µM | NCI-H460 > 10 µM | NCI/ADR-RES > 10 µM | SK-MEL-28 > 10 µM | SF-295 > 10 µM | MCF7 > 10 µM

Cc1csc(NNC(=O)Nc2ccccc2)n1
inactive: SK-OV-3 > 100 µM | MDA-MB-435 > 100 µM | 786-0 > 100 µM | MDA-N > 100 µM | HOP-62 > 100 µM | OVCAR-4 > 100 µM | ACHN > 100 µM | KM12 > 100 µM | OVCAR-5 > 100 µM | K562 > 100 µM | HT-29 > 100 µM | SNB-19 > 100 µM | SK-MEL-2 > 100 µM | NCI-H460 > 100 µM | NCI/ADR-RES > 100 µM | SK-MEL-28 > 100 µM | SF-295 > 100 µM | MCF7 > 100 µM

Cn1c(=O)c2c(n(C)c1=O)n1c(=O)c3ccccc3nc1n2C
inactive: SK-OV-3 > 100 µM | MDA-MB-435 > 100 µM | 786-0 82.2 µM | OVCAR-3 > 100 µM | HOP-62 39.9 µM | OVCAR-4 > 100 µM | ACHN > 100 µM | KM12 > 100 µM | OVCAR-5 > 100 µM | K562 > 100 µM | BT-549 > 100 µM | HT-29 > 100 µM | SNB-19 > 100 µM | SK-MEL-2 > 100 µM | NCI/ADR-RES > 100 µM | SK-MEL-28 > 100 µM | SF-295 38 µM | MCF7 > 100 µM

N#Cc1c(-c2ccc([N+](=O)[O-])cc2)c(C#N)c(=O)n(NS(=O)(=O)c2ccccc2)c1S
inactive: SK-OV-3 79.8 µM | MDA-MB-435 38.5 µM | 786-0 32.1 µM | HOP-62 > 100 µM | OVCAR-4 > 100 µM | ACHN 37.8 µM | KM12 25.3 µM | OVCAR-5 61 µM | K562 30.2 µM | BT-549 15.5 µM | HT-29 36.3 µM | SNB-19 44.2 µM | SK-MEL-2 19.2 µM | NCI-H460 48.8 µM | NCI/ADR-RES 50.6 µM | SK-MEL-28 61.9 µM | SF-295 44.8 µM | MCF7 31.4 µM
